Experimental data published in patent US20080103205A1, “Pesticidal compositions and methods of use” (priority 2006, published 2008).
Read-outs that look alike come from different tables or passages of the source.

What was measured:
Meloidogyne incognita = experiment: Toxicity test, J2 juveniles of Meloidogyne incognita, 96 well micro plate; format: in vivo; details: Meloidogyne incognita
Method: Methodology: Toxicity tests were conducted using J2 juveniles of Meloidogyne incognita adult Caenorhabditis elegans collected from nematode-infested tomato plant roots and culture Petri plates, respectively. Test concentrations of 50, 100, 200, 300, or 400 ppm were prepared in 0.2% dimethylsulfoxide (DMSO) in tap water. Aliquots (300 microliters (ul)) were applied to a 96 well micro plate and a 20 ul aqueous solution containing nematodes was added. The number of nematodes in 20 ul ranged from 17 to 30. Micro plates were sealed with Parafilm™ and incubated at room temperature. Similar tests conducted with 0.2% DMSO in tap water served as controls. Nematode mortality was checked at 24, 48, 72, 120, and 168 hr after incubation. Nematodes that were motionless for 30 sec when observed under a stereomicroscope were considered paralyzed and included in mortality counts. Each concentration was replicated five times and mean percent mortality was calculated after correcting for control mortality using Abbott's formula.
Data Analysis: Mortality data were analyzed using PROC PROBIT (SAS) program and LC50 values were estimated.

[1] = system: Meloidogyne incognita eggs; experiment: M. incognita egg hatching; format: in vivo
Method: Meloidogyne incognita (plant parasitic nematode) eggs were collected from tomato plant roots and were suspended in water. The solution was either diluted or concentrated to adjust the egg load to about 5000/ml. AT stock solutions prepared in DMSO and 300 ul of test solution was placed in a well, along with 20 ul of aqueous solution containing eggs. The number of eggs in 20 ul solution ranged from 115 to 143 (n=10). Each treatment (2, 5, 10, 20, or 40 ppm) was replicated 5 times. Microplates were sealed with Parafilm™ and incubated at room temperature. Similar tests conducted with 0.2% DMSO alone served as controls. Egg hatching was monitored at 24, 72, 120, and 168 hr after incubation. Both moving and non-moving nematodes were counted to arrive at the number of eggs hatched. Proportion of egg hatch was calculated as the number of juveniles divided by total number of eggs.
VSCC blockers effect on M. incognita egg hatching is shown in the following tables where % hatched is rounded to the nearest percentage point and where “% C*” is % hatch, normalized to control.

[2] = 24 h, read-out: Corrected Mortality (%)
[3] = 48 h, read-out: Corrected Mortality (%)
[4] = 72 h, read-out: Corrected Mortality (%)
[5] = 120 h, read-out: Corrected Mortality (%)
[6] = 168 h, read-out: Corrected Mortality (%)

CC1(C2CCCC2)Cc2cc(OCC(=O)O)c(Cl)c(Cl)c2C1=O (single isomer, unassigned; (+)) [IAA-94, (+)(2-cyclopentyl-6,7-dichloro-2-methyl-1-oxo-5-indanyloxy) acetic acid]
mortality at 50 ppm (Meloidogyne incognita; 24 h): 8% | mortality at 100 ppm (Meloidogyne incognita; 24 h): 10% | mortality at 200 ppm (Meloidogyne incognita; 24 h): 14% | mortality at 300 ppm (Meloidogyne incognita; 24 h): 20% | mortality at 400 ppm (Meloidogyne incognita; 24 h): 24% | mortality at 50 ppm (Meloidogyne incognita; [2]): 5% | mortality at 100 ppm (Meloidogyne incognita; [2]): 7% | mortality at 200 ppm (Meloidogyne incognita; [2]): 11% | mortality at 300 ppm (Meloidogyne incognita; [2]): 19% | mortality at 400 ppm (Meloidogyne incognita; [2]): 22% | mortality at 50 ppm (Meloidogyne incognita; 48 h): 17% | mortality at 100 ppm (Meloidogyne incognita; 48 h): 22% | mortality at 200 ppm (Meloidogyne incognita; 48 h): 34% | mortality at 300 ppm (Meloidogyne incognita; 48 h): 38% | mortality at 400 ppm (Meloidogyne incognita; 48 h): 43% | mortality at 50 ppm (Meloidogyne incognita; [3]): 12% | mortality at 100 ppm (Meloidogyne incognita; [3]): 17% | mortality at 200 ppm (Meloidogyne incognita; [3]): 30% | mortality at 300 ppm (Meloidogyne incognita; [3]): 34% | mortality at 400 ppm (Meloidogyne incognita; [3]): 39% | mortality at 50 ppm (Meloidogyne incognita; 72 h): 30% | mortality at 100 ppm (Meloidogyne incognita; 72 h): 38% | mortality at 200 ppm (Meloidogyne incognita; 72 h): 61% | mortality at 300 ppm (Meloidogyne incognita; 72 h): 65% | mortality at 400 ppm (Meloidogyne incognita; 72 h): 70% | mortality at 50 ppm (Meloidogyne incognita; [4]): 22% | mortality at 100 ppm (Meloidogyne incognita; [4]): 31% | mortality at 200 ppm (Meloidogyne incognita; [4]): 57% | mortality at 300 ppm (Meloidogyne incognita; [4]): 61% | mortality at 400 ppm (Meloidogyne incognita; [4]): 67% | mortality at 50 ppm (Meloidogyne incognita; 120 h): 51% | mortality at 100 ppm (Meloidogyne incognita; 120 h): 61% | mortality at 200 ppm (Meloidogyne incognita; 120 h): 83% | mortality at 300 ppm (Meloidogyne incognita; 120 h): 90% | mortality at 400 ppm (Meloidogyne incognita; 120 h): 97% | mortality at 50 ppm (Meloidogyne incognita; [5]): 45% | mortality at 100 ppm (Meloidogyne incognita; [5]): 56% | mortality at 200 ppm (Meloidogyne incognita; [5]): 81% | mortality at 300 ppm (Meloidogyne incognita; [5]): 89% | mortality at 400 ppm (Meloidogyne incognita; [5]): 97% | mortality at 50 ppm (Meloidogyne incognita; 168 h): 74% | mortality at 100 ppm (Meloidogyne incognita; 168 h): 85% | mortality at 200 ppm (Meloidogyne incognita; 168 h): 99% | mortality at 300 ppm (Meloidogyne incognita; 168 h): 100% | mortality at 400 ppm (Meloidogyne incognita; 168 h): 100% | mortality at 50 ppm (Meloidogyne incognita; [6]): 71% | mortality at 100 ppm (Meloidogyne incognita; [6]): 83% | mortality at 200 ppm (Meloidogyne incognita; [6]): 99% | mortality at 300 ppm (Meloidogyne incognita; [6]): 100% | mortality at 400 ppm (Meloidogyne incognita; [6]): 100% | Eggs Hatched % ([1]; 2 ppm, 24 hr): 10% | Eggs Hatched % C* (% hatch, normalized to control) ([1]; 2 ppm, 24 hr): 100% | Eggs Hatched No. ([1]; 2 ppm, 24 hr): 70 | Eggs Hatched % ([1]; 2 ppm, 72 hr): 15% | Eggs Hatched % C* (% hatch, normalized to control) ([1]; 2 ppm, 72 hr): 94% | Eggs Hatched No. ([1]; 2 ppm, 72 hr): 97 | Eggs Hatched % ([1]; 2 ppm, 120 hr): 19% | Eggs Hatched % C* (% hatch, normalized to control) ([1]; 2 ppm, 120 hr): 86% | Eggs Hatched No. ([1]; 2 ppm, 120 hr): 130 | Eggs Hatched % ([1]; 2 ppm, 168 hr): 24% | Eggs Hatched % C* (% hatch, normalized to control) ([1]; 2 ppm, 168 hr): 86% | Eggs Hatched No. ([1]; 2 ppm, 168 hr): 161 | Eggs Hatched % ([1]; 5 ppm, 24 hr): 10% | Eggs Hatched % C* (% hatch, normalized to control) ([1]; 5 ppm, 24 hr): 100% | Eggs Hatched No. ([1]; 5 ppm, 24 hr): 66 | Eggs Hatched % ([1]; 5 ppm, 72 hr): 13% | Eggs Hatched % C* (% hatch, normalized to control) ([1]; 5 ppm, 72 hr): 81% | Eggs Hatched No. ([1]; 5 ppm, 72 hr): 96 | Eggs Hatched % ([1]; 5 ppm, 120 hr): 19% | Eggs Hatched % C* (% hatch, normalized to control) ([1]; 5 ppm, 120 hr): 86% | Eggs Hatched No. ([1]; 5 ppm, 120 hr): 128 | Eggs Hatched % ([1]; 5 ppm, 168 hr): 22% | Eggs Hatched % C* (% hatch, normalized to control) ([1]; 5 ppm, 168 hr): 79% | Eggs Hatched No. ([1]; 5 ppm, 168 hr): 161 | Eggs Hatched % ([1]; 10 ppm, 24 hr): 9% | Eggs Hatched % C* (% hatch, normalized to control) ([1]; 10 ppm, 24 hr): 90% | Eggs Hatched No. ([1]; 10 ppm, 24 hr): 64 | Eggs Hatched % ([1]; 10 ppm, 72 hr): 13% | Eggs Hatched % C* (% hatch, normalized to control) ([1]; 10 ppm, 72 hr): 81% | Eggs Hatched No. ([1]; 10 ppm, 72 hr): 88 | Eggs Hatched % ([1]; 10 ppm, 120 hr): 18% | Eggs Hatched % C* (% hatch, normalized to control) ([1]; 10 ppm, 120 hr): 82% | Eggs Hatched No. ([1]; 10 ppm, 120 hr): 112 | Eggs Hatched % ([1]; 10 ppm, 168 hr): 20% | Eggs Hatched % C* (% hatch, normalized to control) ([1]; 10 ppm, 168 hr): 71% | Eggs Hatched No. ([1]; 10 ppm, 168 hr): 134 | Eggs Hatched % ([1]; 20 ppm, 24 hr): 8% | Eggs Hatched % C* (% hatch, normalized to control) ([1]; 20 ppm, 24 hr): 80% | Eggs Hatched No. ([1]; 20 ppm, 24 hr): 60 | Eggs Hatched % ([1]; 20 ppm, 72 hr): 12% | Eggs Hatched % C* (% hatch, normalized to control) ([1]; 20 ppm, 72 hr): 75% | Eggs Hatched No. ([1]; 20 ppm, 72 hr): 82 | Eggs Hatched % ([1]; 20 ppm, 120 hr): 15% | Eggs Hatched % C* (% hatch, normalized to control) ([1]; 20 ppm, 120 hr): 68% | Eggs Hatched No. ([1]; 20 ppm, 120 hr): 96 | Eggs Hatched % ([1]; 20 ppm, 168 hr): 17% | Eggs Hatched % C* (% hatch, normalized to control) ([1]; 20 ppm, 168 hr): 61% | Eggs Hatched No. ([1]; 20 ppm, 168 hr): 112 | Eggs Hatched % ([1]; 40 ppm, 24 hr): 8% | Eggs Hatched % C* (% hatch, normalized to control) ([1]; 40 ppm, 24 hr): 80% | Eggs Hatched No. ([1]; 40 ppm, 24 hr): 55 | Eggs Hatched % ([1]; 40 ppm, 72 hr): 11% | Eggs Hatched % C* (% hatch, normalized to control) ([1]; 40 ppm, 72 hr): 69% | Eggs Hatched No. ([1]; 40 ppm, 72 hr): 69 | Eggs Hatched % ([1]; 40 ppm, 120 hr): 13% | Eggs Hatched % C* (% hatch, normalized to control) ([1]; 40 ppm, 120 hr): 59% | Eggs Hatched No. ([1]; 40 ppm, 120 hr): 82 | Eggs Hatched % ([1]; 40 ppm, 168 hr): 14% | Eggs Hatched % C* (% hatch, normalized to control) ([1]; 40 ppm, 168 hr): 50% | Eggs Hatched No. ([1]; 40 ppm, 168 hr): 92
